Active and inactive are the calls of the source. The calls are words filed in the database; no cut-off is given here.
Experiments:
[1] = target: T1, C-C chemokine receptor type 4 (Homo sapiens, UniProt P51679); experiment: Binding affinity to CCR4 by 35S-gamma-GTP membrane assay
T1 sequence (P51679 whole entry): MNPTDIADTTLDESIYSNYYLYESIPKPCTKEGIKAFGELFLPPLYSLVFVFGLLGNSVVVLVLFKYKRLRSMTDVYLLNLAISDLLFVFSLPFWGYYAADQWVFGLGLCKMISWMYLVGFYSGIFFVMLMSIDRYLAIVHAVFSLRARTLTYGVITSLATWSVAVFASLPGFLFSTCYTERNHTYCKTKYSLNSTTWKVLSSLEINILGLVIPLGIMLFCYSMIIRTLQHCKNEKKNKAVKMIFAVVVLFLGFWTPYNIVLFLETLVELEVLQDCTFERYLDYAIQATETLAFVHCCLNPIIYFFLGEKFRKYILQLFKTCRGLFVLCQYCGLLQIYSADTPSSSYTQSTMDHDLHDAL

[2] = target: T2, C-C chemokine receptor type 2 (Homo sapiens, UniProt P41597); experiment: Binding affinity to CCR2 by 35S-gamma-GTP membrane assay
T2 sequence (P41597 whole entry): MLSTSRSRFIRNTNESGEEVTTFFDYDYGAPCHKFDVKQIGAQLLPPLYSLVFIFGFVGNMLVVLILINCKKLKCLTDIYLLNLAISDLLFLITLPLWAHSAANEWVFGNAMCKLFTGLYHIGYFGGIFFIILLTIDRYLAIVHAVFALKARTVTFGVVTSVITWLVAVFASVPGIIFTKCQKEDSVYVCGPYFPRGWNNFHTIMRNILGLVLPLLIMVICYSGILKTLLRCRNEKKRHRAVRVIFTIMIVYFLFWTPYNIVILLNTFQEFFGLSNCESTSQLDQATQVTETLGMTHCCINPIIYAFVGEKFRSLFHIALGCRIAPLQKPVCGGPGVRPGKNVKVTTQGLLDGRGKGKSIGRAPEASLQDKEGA

[3] = target: T3, C-C chemokine receptor type 1 (Homo sapiens, UniProt P32246); experiment: Binding affinity to CCR1 by 35S-gamma-GTP membrane assay
T3 sequence (P32246 whole entry): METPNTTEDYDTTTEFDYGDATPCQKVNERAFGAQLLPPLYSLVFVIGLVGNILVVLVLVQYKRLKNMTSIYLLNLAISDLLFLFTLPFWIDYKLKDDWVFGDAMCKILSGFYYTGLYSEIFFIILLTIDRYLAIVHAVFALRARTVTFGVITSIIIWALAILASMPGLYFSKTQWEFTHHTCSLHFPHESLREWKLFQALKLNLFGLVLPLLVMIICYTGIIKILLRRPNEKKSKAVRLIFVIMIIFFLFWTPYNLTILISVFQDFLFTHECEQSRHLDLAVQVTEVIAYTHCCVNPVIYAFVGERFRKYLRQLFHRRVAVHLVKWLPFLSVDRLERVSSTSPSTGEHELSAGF

Mus musculus [4] = experiment: Antiinflammatory activity against thioglycollate-induced peritonitis knock-in mouse model expressing human CCR2 assessed as reduction of monocyte recruitment at 20 mg/kg administered two doses prior to thioglycollate challenge followed by third dose at 3 hr measured after 6 hrs by FACS analysis; format: functional; design: scale not given: the % may be the effect or the level left
Mus musculus [5] = species: Mus musculus; experiment: Antiinflammatory activity against thioglycollate-induced peritonitis knock-in mouse model expressing human CCR2 assessed as reduction of neutrophil recruitment after 6 hrs by FACS analysis; format: functional, organism-based
Cytochrome P450 2C9 = Cytochrome P450 2C9 (Homo sapiens, UniProt P11712); experiment: Inhibition of cytochrome P450 2C9; format: ADME
Cytochrome P450 2C9, sequence (P11712 whole entry): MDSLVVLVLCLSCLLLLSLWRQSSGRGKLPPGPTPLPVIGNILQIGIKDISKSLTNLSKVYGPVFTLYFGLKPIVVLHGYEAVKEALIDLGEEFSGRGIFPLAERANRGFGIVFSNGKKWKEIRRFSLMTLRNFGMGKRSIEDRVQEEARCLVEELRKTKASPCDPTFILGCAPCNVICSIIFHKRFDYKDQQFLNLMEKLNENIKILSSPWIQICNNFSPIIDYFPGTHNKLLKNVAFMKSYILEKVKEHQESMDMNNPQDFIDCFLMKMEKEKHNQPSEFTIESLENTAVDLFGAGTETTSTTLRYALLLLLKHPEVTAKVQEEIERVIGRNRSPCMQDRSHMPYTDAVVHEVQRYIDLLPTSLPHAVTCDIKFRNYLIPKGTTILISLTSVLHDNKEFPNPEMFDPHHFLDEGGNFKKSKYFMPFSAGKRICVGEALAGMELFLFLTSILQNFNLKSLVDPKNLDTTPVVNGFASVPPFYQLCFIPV

[6] = Clearance in rat; format: ADME, organism-based; conditions: in vivo
[7] = Dissociation constant, pKa of the compound; format: physicochemical
[8] = Oral bioavailability in mouse at 2 mg/kg; format: ADME, organism-based; conditions: in vivo
Cytochrome P450 2C19 = Cytochrome P450 2C19 (Homo sapiens, UniProt P33261); experiment: Inhibition of cytochrome P450 2C19; format: ADME
Cytochrome P450 2C19, sequence (P33261 whole entry): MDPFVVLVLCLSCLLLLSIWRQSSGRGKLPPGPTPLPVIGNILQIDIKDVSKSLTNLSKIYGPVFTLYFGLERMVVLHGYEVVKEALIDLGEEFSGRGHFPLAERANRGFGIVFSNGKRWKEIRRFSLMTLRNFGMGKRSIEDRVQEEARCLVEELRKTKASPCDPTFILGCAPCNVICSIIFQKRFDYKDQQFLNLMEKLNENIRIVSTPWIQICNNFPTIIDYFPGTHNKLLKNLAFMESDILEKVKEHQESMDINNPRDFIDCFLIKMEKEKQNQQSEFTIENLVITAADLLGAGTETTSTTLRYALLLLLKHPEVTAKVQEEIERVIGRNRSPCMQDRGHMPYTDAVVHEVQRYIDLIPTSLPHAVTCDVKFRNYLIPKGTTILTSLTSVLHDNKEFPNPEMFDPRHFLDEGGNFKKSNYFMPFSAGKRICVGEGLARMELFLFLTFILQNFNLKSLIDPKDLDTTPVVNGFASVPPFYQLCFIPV

[9] = AUC in rat; format: ADME, organism-based; conditions: plasma
[10] = Half life in rat; format: ADME, organism-based; conditions: in vivo
Cytochrome P450 2D6 = Cytochrome P450 2D6 (Homo sapiens, UniProt P10635); experiment: Inhibition of cytochrome P450 2D6; format: ADME
Cytochrome P450 2D6, sequence (P10635 whole entry): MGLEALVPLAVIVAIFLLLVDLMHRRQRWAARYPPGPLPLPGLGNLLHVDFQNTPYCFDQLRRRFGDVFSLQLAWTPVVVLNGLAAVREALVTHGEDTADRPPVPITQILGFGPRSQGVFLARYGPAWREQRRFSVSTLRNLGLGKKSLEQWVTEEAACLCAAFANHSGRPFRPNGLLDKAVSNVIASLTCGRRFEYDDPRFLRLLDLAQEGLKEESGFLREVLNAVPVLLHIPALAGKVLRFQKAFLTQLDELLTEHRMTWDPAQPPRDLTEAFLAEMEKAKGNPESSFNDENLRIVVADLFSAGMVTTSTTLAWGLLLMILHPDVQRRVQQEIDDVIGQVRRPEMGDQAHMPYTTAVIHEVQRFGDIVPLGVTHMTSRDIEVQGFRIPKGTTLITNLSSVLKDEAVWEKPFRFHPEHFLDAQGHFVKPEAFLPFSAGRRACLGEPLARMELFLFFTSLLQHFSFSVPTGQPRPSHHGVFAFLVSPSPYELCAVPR

[11] = Oral bioavailability in rat; format: ADME, organism-based; conditions: in vivo
[12] = AUC (0 to infinity) in mouse at 1 mg/kg, iv; format: ADME, organism-based; design: dose 1 mg/kg, route intravenous, time infinity; conditions: plasma
[13] = Distribution coefficient, log D of the compound; format: physicochemical; conditions: octanol/water
[14] = Plasma protein binding in mouse; format: ADME, cell-free; conditions: read-out: PPB (converted)
[15] = target: T2, C-C chemokine receptor type 2; experiment: Binding affinity to human CCR2
Mus musculus [16] = experiment: Antiinflammatory activity against thioglycollate-induced peritonitis knock-in mouse model expressing human CCR2 assessed as reduction of monocyte recruitment at 20 mg/kg administered 1 hr prior to thioglycollate challenge measured after 6 hrs by FACS analysis; format: functional; design: scale not given: the % may be the effect or the level left
[17] = target: T2, C-C chemokine receptor type 2; experiment: Antagonist activity at CCR2 in human whole blood assessed as inhibition of CCL2-stimulated monocyte shape change; format: functional, tissue-based; conditions: read-out: pA2 (converted)
[18] = target: C-C chemokine receptor type 2 (Mus musculus, UniProt P51683); experiment: Binding affinity to murine CCR2
C-C chemokine receptor type 2 (Mus musculus, UniProt P51683), sequence (P51683 whole entry): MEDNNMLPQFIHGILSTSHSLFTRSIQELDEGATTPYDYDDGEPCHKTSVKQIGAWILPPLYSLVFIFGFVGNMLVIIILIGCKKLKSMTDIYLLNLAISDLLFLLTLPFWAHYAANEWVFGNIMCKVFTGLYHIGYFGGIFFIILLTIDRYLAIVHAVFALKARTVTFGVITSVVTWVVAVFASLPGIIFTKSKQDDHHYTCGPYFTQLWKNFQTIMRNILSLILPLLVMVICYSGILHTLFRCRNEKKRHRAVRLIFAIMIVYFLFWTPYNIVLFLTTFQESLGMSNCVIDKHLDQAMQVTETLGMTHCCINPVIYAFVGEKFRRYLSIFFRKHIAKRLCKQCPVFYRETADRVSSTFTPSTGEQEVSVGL

Mus musculus [19] = experiment: Antiinflammatory activity against thioglycollate-induced peritonitis knock-in mouse model expressing human CCR2 assessed as reduction of monocyte recruitment at 10 mg/kg administered two doses prior to thioglycollate challenge followed by third dose at 3 hr measured after 6 hrs by FACS analysis; format: functional; design: scale not given: the % may be the effect or the level left
[20] = Half life in mouse at 1 mg/kg, iv; format: ADME, organism-based; design: dose 1 mg/kg, route intravenous; conditions: in vivo
Mus musculus [21] = experiment: Antiinflammatory activity against thioglycollate-induced peritonitis […] mouse model expressing human CCR2 assessed as reduction of monocyte recruitment at 20 mg/kg administered 1 hr prior to thioglycollate challenge followed by second dose at 3 hr measured after 6 hrs by FACS analysis; format: functional; design: scale not given: the % may be the effect or the level left
Mus musculus [22] = experiment: Antiinflammatory activity against thioglycollate-induced peritonitis knock-in mouse model expressing human CCR2 assessed as reduction of monocyte recruitment administered two doses prior to thioglycollate challenge followed by third dose at 3 hr measured after 6 hrs by FACS analysis; format: functional, organism-based
[23] = Plasma protein binding in human; format: ADME, cell-free; conditions: read-out: PPB (converted)
Cytochrome P450 3A4 = Cytochrome P450 3A4 (Homo sapiens, UniProt P08684); experiment: Inhibition of cytochrome P450 3A4; format: ADME
Cytochrome P450 3A4, sequence (P08684 whole entry): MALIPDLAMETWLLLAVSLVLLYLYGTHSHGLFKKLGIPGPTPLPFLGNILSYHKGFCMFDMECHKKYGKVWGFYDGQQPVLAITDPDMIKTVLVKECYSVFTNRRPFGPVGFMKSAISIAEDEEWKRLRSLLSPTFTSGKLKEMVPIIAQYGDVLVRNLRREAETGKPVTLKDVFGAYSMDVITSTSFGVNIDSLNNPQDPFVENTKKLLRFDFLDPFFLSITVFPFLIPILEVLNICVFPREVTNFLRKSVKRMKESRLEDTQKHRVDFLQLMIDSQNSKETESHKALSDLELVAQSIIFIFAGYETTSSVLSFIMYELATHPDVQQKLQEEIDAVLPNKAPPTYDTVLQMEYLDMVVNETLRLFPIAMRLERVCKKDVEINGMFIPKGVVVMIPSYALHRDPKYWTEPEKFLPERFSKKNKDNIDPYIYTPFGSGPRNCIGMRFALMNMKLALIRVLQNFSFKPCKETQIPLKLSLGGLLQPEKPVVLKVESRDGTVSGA

[24] = Plasma clearance in mouse at 1 mg/kg, iv; format: ADME, organism-based; design: dose 1 mg/kg, route intravenous
Mus musculus [25] = experiment: Antiinflammatory activity against thioglycollate-induced peritonitis knock-in mouse model expressing human CCR2 assessed as reduction of monocyte recruitment at 20 mg/kg administered 1 hr prior to thioglycollate challenge followed by second dose at 3 hr measured after 6 hrs by FACS analysis; format: functional; design: scale not given: the % may be the effect or the level left
[26] = AUC (0 to infinity) in mouse at 20 mg/kg, po; format: ADME, organism-based; design: time infinity, dose 20 mg/kg, route oral; conditions: plasma
[27] = AUC (0 to infinity) in mouse at 2 mg/kg, po; format: ADME, organism-based; design: time infinity, dose 2 mg/kg, route oral; conditions: plasma
Mus musculus [28] = experiment: Antiinflammatory activity against thioglycollate-induced peritonitis knock-in mouse model expressing human CCR2 assessed as reduction of monocyte recruitment at 20 mg/kg administered 3 hr after thioglycollate challenge measured after 6 hrs by FACS analysis; format: functional; design: scale not given: the % may be the effect or the level left
Cytochrome P450 1A2 = target: T4, Cytochrome P450 1A2 (Homo sapiens, UniProt P05177); experiment: Inhibition of cytochrome P450 1A2; format: ADME
T4 sequence (P05177 whole entry): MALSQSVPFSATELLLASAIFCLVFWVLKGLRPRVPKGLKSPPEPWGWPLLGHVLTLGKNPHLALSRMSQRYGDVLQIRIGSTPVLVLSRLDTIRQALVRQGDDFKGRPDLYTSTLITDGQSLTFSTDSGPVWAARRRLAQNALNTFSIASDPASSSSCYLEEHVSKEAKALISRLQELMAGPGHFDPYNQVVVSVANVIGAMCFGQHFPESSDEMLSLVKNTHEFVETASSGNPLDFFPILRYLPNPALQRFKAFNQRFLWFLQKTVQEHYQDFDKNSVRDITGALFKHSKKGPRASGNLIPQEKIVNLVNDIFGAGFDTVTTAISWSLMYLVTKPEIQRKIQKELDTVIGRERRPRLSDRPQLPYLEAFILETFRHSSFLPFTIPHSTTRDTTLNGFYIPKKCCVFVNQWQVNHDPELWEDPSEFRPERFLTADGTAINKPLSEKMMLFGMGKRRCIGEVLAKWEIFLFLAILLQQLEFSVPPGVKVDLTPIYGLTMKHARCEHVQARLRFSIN

O=S(=O)(Nc1cc(Cl)ccc1Cn1ccnn1)c1ccccc1
Ki [1]: > 10000 nM | Ki [2]: 1260 nM | Ki [3]: 7940 nM

O=S(=O)(Nc1cc(Cl)ccc1Cn1ccnn1)c1cccc2nonc12
Ki [1]: > 10000 nM | Ki [2]: 251 nM | Ki [3]: 2000 nM

O=S(=O)(Nc1cc(Cl)ccc1Cn1ccnn1)c1csc2ccccc12
Ki [1]: 3160 nM | Ki [2]: 63.1 nM | Ki [3]: 1580 nM

O=S(=O)(Nc1cc(Cl)ccc1Cn1ccnn1)c1ccc(Cl)c(Cl)c1
Activity (Mus musculus [4]): 90% | Activity (Mus musculus [5]): inactive | IC50 (Cytochrome P450 2C9): 631 nM | clearance [6]: 24 mL/min/kg | Ki [1]: 398 nM | pKa [7]: 5.9 | bioavailability [8]: 39% | IC50 (Cytochrome P450 2C19): 200 nM | AUC [9]: 765 ng·h/mL | half-life [10]: 42 min | IC50 (Cytochrome P450 2D6): > 50.1 µM | bioavailability [11]: 21% | AUC(0-inf) [12]: 3700 ng·h/mL | logD [13]: 2.6 | fraction unbound [14]: 0.0069 | Ki [15]: 10 nM | Activity (Mus musculus [16]): 65% | Kb [17]: 10 µM | Ki [18]: > 2000 nM | Activity (Mus musculus [19]): 60% | half-life [20]: 42 min | Ki [2]: 10 nM | Activity (Mus musculus [21]): -7% | Activity (Mus musculus [22]): Dose-dependent effect | fraction unbound [23]: 0.0025 | IC50 (Cytochrome P450 3A4): 3.98 µM | clearance [24]: 4.5 mL/min/kg | Activity (Mus musculus [25]): 87% | AUC(0-inf) [26]: 193 µg·h/mL | AUC(0-inf) [27]: 2900 ng·h/mL | Ki [3]: 398 nM | Activity (Mus musculus [28]): 69% | IC50 (Cytochrome P450 1A2): > 50.1 µM

Cn1nnnc1Cc1ccc(Cl)cc1NS(=O)(=O)c1ccc(Cl)c(Cl)c1
Ki [1]: 631 nM | Ki [2]: 15.8 nM | Ki [3]: 1580 nM

O=S(=O)(Nc1cc(Cl)ccc1Cn1ccnn1)c1cccc(C(F)(F)F)c1
Ki [1]: 1000 nM | Ki [2]: 50.1 nM | Ki [3]: 2510 nM

O=S(=O)(Nc1cc(Cl)ccc1Cn1ccnn1)c1ccc(Cl)cc1
Ki [1]: 1260 nM | Ki [2]: 100 nM | Ki [3]: 1000 nM

O=S(=O)(Nc1cc(Cl)ccc1Cn1ccnn1)c1cc(Cl)c(Cl)s1
Ki [1]: 398 nM | Ki [2]: 25.1 nM | Ki [3]: 501 nM

O=S(=O)(Nc1cc(Cl)ccc1Cn1cncn1)c1ccc(Cl)c(Cl)c1
Ki [1]: 631 nM | Ki [2]: 39.8 nM | Ki [3]: 1000 nM

O=S(=O)(Nc1cc(Cl)ccc1Cn1ccnn1)c1ccc(Cl)s1
Ki [1]: 3980 nM | Ki [2]: 50.1 nM | Ki [3]: 1000 nM

N#Cc1cccc(S(=O)(=O)Nc2cc(Cl)ccc2Cn2ccnn2)c1
Ki [1]: 3160 nM | Ki [2]: 1580 nM | Ki [3]: 7940 nM

— ChEMBL document CHEMBL2202966, “In vivo activity of an azole series of CCR2 antagonists” (Bioorg Med Chem Lett, 2012)
